This is an account of results in patent US6136815A, “Antiviral 2,4-pyrimidinedione derivatives and process for the preparation thereof” (Korea Research Inst. of Chem. Tech., priority 1996, dated 2000).

Series [1] in a line: cytotoxicity: viability of mock-infected host (MT-4) cells (MTT). The format is cell-based. The note with it: human, Cytotoxic concentration that causes death of MT4 cells by 50%, MTT method, read-out: CD50 (the source's name). The method, then:
The cytotoxicity of the compounds of the present invention was assessed in parallel with their antiviral activity. It was based on the viability of mock-infected host cells as determined by the MTT methods (see J. Virol. Methods, 20, 309 (1988)). AZT was employed as a comparative compound.

The next series deals with HIV-1. Nature of the series: in vitro anti-HIV-1 assay: inhibition of the virus-induced cytopathic effect in MT-4 cells (MTT). The format is cell-based. The note with it: for S. I. (CD50 /ED50): Selectivity index = (CD50 /ED50). The method, then:
The in vitro anti-HIV-1 assays were based on the inhibition of the virus-induced cytopathic effect in MT-4 cells as described in J. Med. Chem, 34, 349 (1991).
First, MT-4 cells were suspended in a culture medium at a concentration of 1×10^4 cells/ml and infected with 500 TCID50 (50% cell culture infective dose)/well of HIV-1. Immediately after the virus infection, 100 μl of the cell suspension was brought into each well of a flat-bottomed microtiter tray containing various concentrations of the test compounds(1) to (21). After incubating for 4 or 5 days at 37° C., the number of viable cells was determined by the 3-(4,5-dimethylthiazol-2-yl)-2,5-diphenyltetrazolium bromide (MTT) method, as disclosed in J. Virol. Methods, 20, 309 (1988).

Where [2] appears, read: Human immunodeficiency virus 1, MT4, Effective concentration for the inhibition of the proliferation of HIV by 50%, HIV-1-infected MT-4 cells, 4 or 5 days at 37° C., MTT method, read-out: ED50 (the source's name).
Setting [3] is: Human immunodeficiency virus 1, MT4, read-out: ED50.

In brackets after ≈: the same amount, converted by molar mass. Where two headings read alike, the source gives them in different places.

On to `CC(C)c1c(Oc2ccccc2)n(COCc2ccccc2)c(=O)[nH]c1=O` [Compound 7, 1-benzyloxymethyl-5-isopropyl-6-phenoxy-2,4-pyrimidinedione], for which the CC50 in series [1] was found to be 10.2 µg/mL (≈ 27.9 µM). Moreover, in the series with HIV-1 (setting [2]), the EC50 is below 0.001 µg/mL. The “S. I. (CD50 /ED50)” value in the series with HIV-1 is on record as > 10,210.

Consider `CCOCn1c(C(=O)c2cc(C)cc(C)c2)c(CC)c(=O)[nH]c1=O` [Compound 13, 1-ethoxymethyl-5-ethyl-6-(3',5'-dimethylbenzoyl)-2,4-pyrimidinedione], for which the CC50 in series [1] was 5.86 µg/mL (≈ 17.7 µM). The EC50 with HIV-1 (setting [2]) is below 0.001 µg/mL. In addition, in the series on HIV-1, the “S. I. (CD50 /ED50)” value is listed as > 5,860.

For `Cc1cc(C)cc(Oc2c(C(C)C)c(=O)[nH]c(=O)n2COCc2ccccc2)c1` [Compound 6, 1-benzyloxymethyl-5-isopropyl-6-(3',5'-dimethylphenoxy)-2,4-pyrimidinedione], the CC50 in series [1] came out at 13.4 µg/mL (≈ 34 µM). In addition, the EC50 with HIV-1 (setting [2]) was below 0.00256 µg/mL. Moreover, the “S. I. (CD50 /ED50)” value in the series with HIV-1 is > 5,246.

As to `COCCOCn1c(Oc2cc(C)cc(C)c2)c(C(C)C)c(=O)[nH]c1=O` [Compound 12, 1-(2'-methoxyethoxymethyl)-5-isopropyl-6-(3',5'-dimethylphenoxy)-2,4-pyrimidinedione], in series [1], the CC50 was 126 µg/mL (≈ 348 µM). Further, the EC50 in the series on HIV-1 (setting [2]) worked out at 0.0106 µg/mL (≈ 0.0291 µM).

On to `Cc1cc(C)cc(C(=O)c2c(C(C)C)c(=O)[nH]c(=O)n2COCc2ccccc2)c1` [Compound 18, 1-benzyloxymethyl-5-isopropyl-6-(3',5 '-dimethylbenzoyl)-2,4-pyrimidinedione], for which the CC50 in series [1] was found to be 11.9 µg/mL (≈ 29.3 µM). Moreover, the EC50 with HIV-1 (setting [2]) was below 0.001 µg/mL. Further, the “S. I. (CD50 /ED50)” value in the series on HIV-1 is > 11,920.

For the compound `COCCOCn1c(C(=O)c2cc(C)cc(C)c2)c(C(C)C)c(=O)[nH]c1=O` [Compound 21, 1-(2'-methoxyethoxymethyl)-5-isopropyl-6-(3',5'-dimethylbenzoyl)-2,4-pyrimidinedione], the CC50 in series [1] was found to be 121 µg/mL (≈ 324 µM). The EC50 in the series with HIV-1 (setting [2]) came to 0.0119 µg/mL (≈ 0.0318 µM).

For the compound `CC(=O)OCCOCn1c(Oc2cc(C)cc(C)c2)c(C(C)C)c(=O)[nH]c1=O` [Compound 10, 1-(2'-acetoxyethoxymethyl)-5-isopropyl-6-(3',5'-dimethylphenoxy)-2,4-pyrimidinedione], the CC50 in series [1] was found to be 119 µg/mL (≈ 304 µM). In addition, the EC50 in the series on HIV-1 (setting [2]) was found to be 0.00351 µg/mL (≈ 0.00899 µM).

Regarding `Cc1cn([C@H]2C[C@H](N=[N+]=[N-])[C@@H](CO)O2)c(=O)[nH]c1=O` [AZT, 3'-azido-3'-deoxythymidine, reference compound], the CC50 in series [1] amounted to 0.558 µg/mL (≈ 2.09 µM). The EC50 in the series with HIV-1 (setting [3]) is 0.00116 µg/mL (≈ 0.00434 µM).

As for `CCOCn1c(Oc2ccccc2)c(CC)c(=O)[nH]c1=O` [Compound 3, 1-ethoxymethyl-5-ethyl-6-phenoxy-2,4-pyrimidinedione], the CC50 in series [1] worked out at 16.6 µg/mL (≈ 57.3 µM). Besides, the EC50 in the series with HIV-1 (setting [2]) is below 0.001 µg/mL. Besides, in the series on HIV-1, the “S. I. (CD50 /ED50)” value is listed as > 16,630.

`CCOCn1c(C(=O)c2ccccc2)c(C(C)C)c(=O)[nH]c1=O` [Compound 16, 1-ethoxymethyl-5-isopropyl-6-benzoyl-2,4-pyrimidinedione]: the CC50 in series [1] was 88.7 µg/mL (≈ 280 µM). The EC50 in the series with HIV-1 (setting [2]) stood at 0.0116 µg/mL (≈ 0.0367 µM).

`Cc1cc(C)cc(C(=O)c2c(C(C)C)c(=O)[nH]c(=O)n2COCCO)c1` [Compound 20]: in series [1], the CC50 was 51.7 µg/mL (≈ 143 µM). In addition, in the series with HIV-1 (setting [2]), the EC50 came out at 0.00367 µg/mL (≈ 0.0102 µM).

Regarding `CCc1c(Oc2cc(C)cc(C)c2)n(COCCOC(C)=O)c(=O)[nH]c1=O` [Compound 8, 1-(2'-acetoxyethoxymethyl)-5-ethyl-6-(3',5'-dimethylphenoxy)-2,4-pyrimidinedione], the CC50 in series [1] stood at 9.52 µg/mL (≈ 25.3 µM). The EC50 in the series with HIV-1 (setting [2]) was below 0.00256 µg/mL. For the same compound, the “S. I. (CD50 /ED50)” value in the series on HIV-1 is > 3,718.

Turning to `CC(C)c1c(C(=O)c2ccccc2)n(COCc2ccccc2)c(=O)[nH]c1=O` [Compound 19, 1-benzyloxymethyl-5-isopropyl-6-benzoyl-2,4-pyrimidinedione], the CC50 in series [1] worked out at 15.4 µg/mL (≈ 40.8 µM). Moreover, the EC50 in the series on HIV-1 (setting [3]) was below 0.01 µg/mL. Besides, the “S. I. (CD50 /ED50)” value with HIV-1 is on record as > 15,450.

Turning to `CCOCn1c(Oc2ccccc2)c(C(C)C)c(=O)[nH]c1=O` [Compound 4, 1-ethoxymethyl-5-isopropyl-6-phenoxy-2,4-pyrimidinedione], the CC50 in series [1] is 92 µg/mL (≈ 302 µM). Besides, the EC50 in the series with HIV-1 (setting [3]) is 0.018 µg/mL (≈ 0.0591 µM). For the same compound, the “S. I. (CD50 /ED50)” value in the series on HIV-1 is given as > 5,111.

Turning to `CCOCn1c(C(=O)c2cc(C)cc(C)c2)c(C(C)C)c(=O)[nH]c1=O` [Compound 14, 1-ethoxymethyl-5-isopropyl-6-(3',5'-dimethylbenzoyl)-2,4-pyrimidinedione], the CC50 in series [1] turned out to be 15.3 µg/mL (≈ 44.5 µM). Besides, the EC50 in the series with HIV-1 (setting [2]) is below 0.001 µg/mL. Besides, in the series with HIV-1, the “S. I. (CD50 /ED50)” value is recorded as > 15,330.

In the case of `CCc1c(Oc2cc(C)cc(C)c2)n(COCc2ccccc2)c(=O)[nH]c1=O` [Compound 5, 1-benzyloxymethyl-5-ethyl-6-(3',5'-dimethylphenoxy)-2,4-pyrimidinedione], the CC50 in series [1] came to 29.7 µg/mL (≈ 78 µM). For the same compound, in the series with HIV-1 (setting [2]), the EC50 was below 0.00256 µg/mL. In addition, the “S. I. (CD50 /ED50)” value with HIV-1 is listed as > 11,585.

For the compound `CCc1c(Oc2cc(C)cc(C)c2)n(COCCO)c(=O)[nH]c1=O` [Compound 9], the CC50 in series [1] is 35.1 µg/mL (≈ 105 µM). Moreover, the EC50 in the series on HIV-1 (setting [2]) was 0.992 µg/mL (≈ 2.97 µM).

`CCOCn1c(Oc2cc(C)cc(C)c2)c(CC)c(=O)[nH]c1=O` [Compound 1, 1-ethoxymethyl-5-ethyl-6-(3',5'-dimethylphenoxy)-2,4-pyrimidinedione]: the CC50 in series [1] was 84.7 µg/mL (≈ 266 µM). Moreover, the EC50 with HIV-1 (setting [2]) is below 0.001 µg/mL. The “S. I. (CD50 /ED50)” value with HIV-1 is on record as > 84,680.

For the compound `CCc1c(C(=O)c2cc(C)cc(C)c2)n(COCc2ccccc2)c(=O)[nH]c1=O` [Compound 17, 1-benzyloxymethyl-5-ethyl-6-(3',5'-dimethylbenzoyl)-2,4-pyrimidinedione], in series [1], the CC50 came to 1.05 µg/mL (≈ 2.69 µM). Further, the EC50 in the series with HIV-1 (setting [3]) was below 0.001 µg/mL. Besides, in the series with HIV-1, the “S. I. (CD50 /ED50)” value was > 10,550.

`CCOCn1c(C(=O)c2ccccc2)c(CC)c(=O)[nH]c1=O` [Compound 15, 1-ethoxymethyl-5-ethyl-6-benzoyl-2,4-pyrimidinedione]: the CC50 in series [1] came out at 103 µg/mL (≈ 342 µM). Besides, in the series on HIV-1 (setting [2]), the EC50 was determined as 0.043 µg/mL (≈ 0.142 µM).

Turning to `Cc1cc(C)cc(Oc2c(C(C)C)c(=O)[nH]c(=O)n2COCCO)c1` [Compound 11, 1-(2'-hydroxyethoxymethyl)-5-isopropyl-6-(3',5'-dimethylphenoxy)-2,4-pyrimidinedione], the CC50 in series [1] came to 129 µg/mL (≈ 370 µM). The EC50 with HIV-1 (setting [2]) worked out at 0.0107 µg/mL (≈ 0.0308 µM).

Take `CCOCn1c(Oc2cc(C)cc(C)c2)c(C(C)C)c(=O)[nH]c1=O` [Compound 2, 1-ethoxymethyl-5-isopropyl-6-(3',5'-dimethylphenoxy)-2,4-pyrimidinedione]: in series [1], the CC50 turned out to be 21.6 µg/mL (≈ 64.9 µM). The EC50 in the series with HIV-1 (setting [2]) was below 0.00256 µg/mL. Further, the “S. I. (CD50 /ED50)” value with HIV-1 is > 8,425.
